Experimental data reported in patent publication US12295936B2, “Immunomodulating urea azalides” (Zoetis Services LLC, priority 2020, dated 2025).

Each molecule was assayed on BRD pathogens, M. haemolytica and P. multocida (assay: MIC screening panel of BRD pathogens (antibacterial / non-antibacterial)). Conditions: Table J, Formula (1-A1b) compounds.

Molecule	MIC ≤64 μg/mL for at least one of the bacterial strains (flag * at Ex #)
1-((2S,3R,4S,6R)-2-(((2R,3S,4R,5R,8R,10R,11R,12S,13S,14R)-2-ethyl-3,4,10-trihydroxy-13-(((2R,4R,5S,6S)-5-hydroxy-4-methoxy-4,6-dimethyl-5-((4-(trifluoromethyl)piperazin-1-yl)methyl)tetrahydro-2H-pyran-2-yl)oxy)-3,5,8,10,12,14-hexamethyl-15-oxo-1-oxa-6-azacyclopentadecan-11-yl)oxy)-3-hydroxy-6-methyltetrahydro-2H-pyran-4-yl)-1,3-dimethyl-3-phenylurea [Example J-14]	J-14* (*MIC ≤64 μg/mL for at least one of the bacterial strains)

Same assay, conditions: read-out: antibacterial / non-antibacterial (MIC for the BRD pathogens)

Molecule	MIC
CCCNC[C@]1(O)[C@H](C)O[C@@H](O[C@H]2[C@H](C)[C@@H](O[C@@H]3O[C@H](C)C[C@H](N(C)C(=O)Nc4cccc(F)c4)[C@H]3O)[C@](C)(O)C[C@@H](C)CN[C@H](C)[C@@H](O)[C@](C)(O)[C@@H](CC)OC(=O)[C@@H]2C)C[C@@]1(C)OC [Example H-85, 1-((2S,3R,4S,6R)-2-(((2R,3S,4R,5R,8R,10R,11R,12S,13S,14R)-2-ethyl-3,4,10-trihydroxy-13-(((2R,4R,5S,6S)-5-hydroxy-4-methoxy-4,6-dimethyl-5-((propylamino)methyl)tetrahydro-2H-pyran-2-yl)oxy)-3,5,8,10,12,14-hexamethyl-15-oxo-1-oxa-6-azacyclopentadecan-11-yl)oxy)-3-hydroxy-6-methyltetrahydro-2H-pyran-4-yl)-3-(3-fluorophenyl)-1-methylurea]	> 64 µg/mL
CC[C@H]1OC(=O)[C@H](C)[C@@H](O[C@H]2C[C@@](C)(OC)[C@](O)(CNCC3CC3)[C@H](C)O2)[C@H](C)[C@@H](O[C@@H]2O[C@H](C)C[C@H](N(C)C(=O)N(C)c3ccccc3)[C@H]2O)[C@](C)(O)C[C@@H](C)CN[C@H](C)[C@@H](O)[C@]1(C)O [Example H-41, 1-((2S,3R,4S,6R)-2-(((2R,3S,4R,5R,8R,10R,11R,12S,13S,14R)-13-(((2R,4R,5S,6S)-5-(((cyclopropylmethyl)amino)methyl)-5-hydroxy-4-methoxy-4,6-dimethyltetrahydro-2H-pyran-2-yl)oxy)-2-ethyl-3,4,10-trihydroxy-3,5,8,10,12,14-hexamethyl-15-oxo-1-oxa-6-azacyclopentadecan-11-yl)oxy)-3-hydroxy-6-methyltetrahydro-2H-pyran-4-yl)-1,3-dimethyl-3-phenylurea]	> 64 µg/mL
CCCNC[C@]1(O)[C@H](C)O[C@@H](O[C@H]2[C@H](C)[C@@H](O[C@@H]3O[C@H](C)C[C@H](N(C)C(=O)N(C)c4ncccn4)[C@H]3O)[C@](C)(O)C[C@@H](C)CN[C@H](C)[C@@H](O)[C@](C)(O)[C@@H](CC)OC(=O)[C@@H]2C)C[C@@]1(C)OC [Example H-49, 1-((2S,3R,4S,6R)-2-(((2R,3S,4R,5R,8R,10R,11R,12S,13S,14R)-2-ethyl-3,4,10-trihydroxy-13-(((2R,4R,5S,6S)-5-hydroxy-4-methoxy-4,6-dimethyl-5-((propylamino)methyl)tetrahydro-2H-pyran-2-yl)oxy)-3,5,8,10,12,14-hexamethyl-15-oxo-1-oxa-6-azacyclopentadecan-11-yl)oxy)-3-hydroxy-6-methyltetrahydro-2H-pyran-4-yl)-1,3-dimethyl-3-(pyrimidin-2-yl)urea]	> 64 µg/mL
CC[C@H]1OC(=O)[C@H](C)[C@@H](O)[C@H](C)[C@@H](O[C@@H]2O[C@H](C)C[C@H](N(C)C(=O)Nc3ccc(C)cc3)[C@H]2O)[C@](C)(O)C[C@@H](C)CN[C@H](C)[C@@H](O)[C@]1(C)O [Example A-24, 1-((2S,3R,4S,6R)-2-(((2R,3S,4R,5R,8R,10R,11R,12S,13S,14R)-2-ethyl-3,4,10,13-tetrahydroxy-3,5,8,10,12,14-hexamethyl-15-oxo-1-oxa-6-azacyclopentadecan-11-yl)oxy)-3-hydroxy-6-methyltetrahydro-2H-pyran-4-yl)-1-methyl-3-(p-tolyl)urea]	> 64 µg/mL
CC[C@H]1OC(=O)[C@H](C)[C@@H](O)[C@H](C)[C@@H](O[C@@H]2O[C@H](C)C[C@H](N(C)C(=O)Nc3cccc(OC)c3)[C@H]2O)[C@](C)(O)C[C@@H](C)CN[C@H](C)[C@@H](O)[C@]1(C)O [Example A-21, 1-((2S,3R,4S,6R)-2-(((2R,3S,4R,5R,8R,10R,11R,12S,13S,14R)-2-ethyl-3,4,10,13-tetrahydroxy-3,5,8,10,12,14-hexamethyl-15-oxo-1-oxa-6-azacyclopentadecan-11-yl)oxy)-3-hydroxy-6-methyltetrahydro-2H-pyran-4-yl)-3-(3-methoxyphenyl)-1-methylurea]	> 64 µg/mL
CCOC[C@]1(O)[C@H](C)O[C@@H](O[C@H]2[C@H](C)[C@@H](O[C@@H]3O[C@H](C)C[C@H](N(C)C(=O)N(C)c4ccc(C(F)(F)F)cc4)[C@H]3O)[C@](C)(O)C[C@@H](C)CN[C@H](C)[C@@H](O)[C@](C)(O)[C@@H](CC)OC(=O)[C@@H]2C)C[C@@]1(C)OC [Example C-3, 1-((2S,3R,4S,6R)-2-(((2R,3S,4R,5R,8R,10R,11R,12S,13S,14R)-13-(((2R,4R,5S,6S)-5-(ethoxymethyl)-5-hydroxy-4-methoxy-4,6-dimethyltetrahydro-2H-pyran-2-yl)oxy)-2-ethyl-3,4,10-trihydroxy-3,5,8,10,12,14-hexamethyl-15-oxo-1-oxa-6-azacyclopentadecan-11-yl)oxy)-3-hydroxy-6-methyltetrahydro-2H-pyran-4-yl)-1,3-dimethyl-3-(4-(trifluoromethyl)phenyl)urea]	> 64 µg/mL
CCCNC[C@]1(O)[C@H](C)O[C@@H](O[C@H]2[C@H](C)[C@@H](O[C@@H]3O[C@H](C)C[C@H](N(C)C(=O)N(CC)c4ccccc4)[C@H]3O)[C@](C)(O)C[C@@H](C)CN[C@H](C)[C@@H](O)[C@](C)(O)[C@@H](CC)OC(=O)[C@@H]2C)C[C@@]1(C)OC [Example H-16, 1-ethyl-3-((2S,3R,4S,6R)-2-(((2R,3S,4R,5R,8R,10R,11R,12S,13S,14R)-2-ethyl-3,4,10-trihydroxy-13-(((2R,4R,5S,6S)-5-hydroxy-4-methoxy-4,6-dimethyl-5-((propylamino)methyl)tetrahydro-2H-pyran-2-yl)oxy)-3,5,8,10,12,14-hexamethyl-15-oxo-1-oxa-6-azacyclopentadecan-11-yl)oxy)-3-hydroxy-6-methyltetrahydro-2H-pyran-4-yl)-3-methyl-1-phenylurea]	> 64 µg/mL
CC[C@H]1OC(=O)[C@H](C)[C@@H](O)[C@H](C)[C@@H](O[C@@H]2O[C@H](C)C[C@H](N(C)C(=O)Nc3ccccn3)[C@H]2O)[C@](C)(O)C[C@@H](C)CN[C@H](C)[C@@H](O)[C@]1(C)O [Example A-3, 1-((2S,3R,4S,6R)-2-(((2R,3S,4R,5R,8R,10R,11R,12S,13S,14R)-2-ethyl-3,4,10,13-tetrahydroxy-3,5,8,10,12,14-hexamethyl-15-oxo-1-oxa-6-azacyclopentadecan-11-yl)oxy)-3-hydroxy-6-methyltetrahydro-2H-pyran-4-yl)-1-methyl-3-(pyridin-2-yl)urea]	> 64 µg/mL
